Source: US10907153B2, “Treatment of heart disease by inhibtion of the action of muscle A-kinase anchoring protein (mAKAP)” (priority 2017, dated 2021)

Assays:
[1] = tested on: neonatal rat ventricular myocytes; assay: Hypertrophy of cultured neonatal rat ventricular myocytes (cross-section area, ANF expression); type: cell-based; details: for agonist-induced myocyte hypertrophy: pan-RSK inhibitors, neonatal myocytes
Protocol: Neonatal rat myocytes isolation and culture: 1-3 day old Sprague-Dawley rats were decapitated and the excised hearts placed in 1×ADS Buffer (116 mmol/L NaCl, 20 mmol/L HEPES, 1 mmol/L NaH2PO4, 5.5 mmol/L glucose, 5.4 mmol/L KCl, 0.8 mmol/L MgSO4, pH 7.35). The atria were carefully removed and the blood washed away. The ventricles were minced and incubated with 15 mL 1×ADS Buffer containing 3.3 mg type II collagenase (Worthington, 230 U/mg) and 9 mg Pancreatin (Sigma) at 37° C. while shaking at 80 RPM. After 15 minutes, the dissociated cardiac myocytes were separated by centrifugation at 50×g for 1 minute, resuspended in 4 mL horse serum and incubated 37° C. with occasional agitation. The steps for enzymatic digestion and isolation of myocytes were repeated 10-12 times to maximize yield. The myocytes were pooled and spun down again at 50×g for 2 minutes and resuspended in Maintenance Medium (DMEM:M199, 4:1) supplemented with 10% horse serum and 5% fetal bovine serum. To remove any contaminating fibroblasts, the cells were pre-plated for 1 hour before plating on gelatin-coated tissue culture plasticware. This procedure yields >90% pure cardiac myocytes. After 1 day in culture, the media was changed to maintenance medium containing 0.1 mmol/L bromodeoxyuridine to suppress fibroblast growth.
Experiments were initiated 1 day after myocyte isolation. Adenoviral infection was performed by addition of adenovirus (multiplicity of infection=5-50) to the media. Plasmids and siRNA oligonucleotides were transfected using Transfast (Promega) and Dharmafect (Thermofisher), respectively, as recommended by the manufacturers using cells cultured in maintenance medium supplemented with 4% horse serum. Starting the day after gene transduction, the cells were treated for as long as 2 days, as indicated for each experiment. […]
Morphometry: Morphometric data was acquired using IPLab Software. […] For adult mouse cardiac myocytes, the maximum lengths perpendicular (width) or parallel (length) to the myofibrils were measured for >100 freshly dissociated myocytes per heart.

[2] = tested on: Noonan syndrome mouse model; details: Wu 2011; cited from earlier work
NHE1 = details: Cuello 2007; cited from earlier work
RSK = RSK activation in neonatal rat ventricular myocytes (pan-RSK S218 phospho-specific antibody); type: cell-based; details: α-adrenergic stimulation, MEK1/2- and MEK5-dependent
Text: RSK family members can be activated in most cell types by ERK, but not c-Jun N-terminal kinases or p38 (Anjum 2008). ERK phosphorylation is permissive for PDK1 phosphorylation of the RSK N-terminal kinase domain, such that PDK1 phosphorylation of RSK S^218 is indicative of full activation of the enzyme (FIG. 4A of U.S. Pat. No. 9,132,174). […] The α-adrenergic stimulation with phenylephrine (PE) induced RSK phosphorylation 3-fold by both MEK1/2-dependent (that activates ERK1/2) and MEK5-dependent (that activates ERK5) mechanisms (FIG. 22 of U.S. Pat. No. 9,132,174).

RSK3 and mAKAPβ = assay: Co-immunoprecipitation of endogenous RSK3 with mAKAPβ in neonatal myocytes; type: cell-based, rat; details: expressed in neonatal myocytes
Protocol: Immunoprecipitations: HEK293 and COS-7 cells were transfected with Lipofectamine 2000 (Invitrogen) or Polyethylenimine “Max” (Polysciences). Cells (including myocytes) were lysed in buffer (20 mmol/L HEPES, pH 7.4, 150 mmol/L NaCl, 5 mmol/L EDTA, 0.5% Triton, 50 mmol/L NaF, 1 mmol/L sodium orthovanadate, 1 mmol/L DTT, and protease inhibitors). After centrifugation at 10,000×g for 10 minutes at 4° C., the clarified extracts were used for immunoprecipitation using appropriate antibodies (10 μg purified antibody or 1-5 μL whole serum) and 20 μL protein G sepharose (Millipore, Fastflow) for 3 hours to overnight at 4° C. The beads were washed 3-5 times with lysis buffer, and the immunoprecipitated proteins were eluted with 1× Laemmli buffer for western blotting. Western blots were developed using horseradish peroxidase-conjugated donkey secondary antibodies, Supersignal West Chemiluminescent Substrates (Thermo Scientific) and X-ray film or a Fujifilm LAS-3000 imaging system.
B. Transfected myocytes expressing GFP or GFP-RBD (green) were stained with α-actinin (blue) and ANF (red) antibodies. Bar=20 μm. C. Cross-section area of myocytes. n=5. D. Fraction of myocytes expressing ANF. n=3. * p-values comparing to GFP-expressing samples. † p-values comparing to no agonist control.

wildtype mice = assay: Transverse aortic constriction (2 week TAC) after AAV9 injection; type: in vivo, mouse; details: AAV9 injected into neonatal mice, 2 week TAC at 8 weeks of age
Text: Transverse Aortic Constriction: All tools were sterilized with a Germinator 500 Dry Sterilizer and Betadine Solution (10% povidone-iodine topical solution). Anesthesia was induced with 5% isoflurane and maintained with 2% isoflurane and 100% oxygen at a flow rate of 1.5 L/min using a SurgiVet flow regulator via nose cone. Loss of consciousness was verified by toe pinch. Mouse fur over the left chest and sternum was removed with a calcium hydroxide lotion (e.g. Nair), and the surgical site was sterilized with betadine. The skin was incised exposing the pectoralis muscle and the second left intercostal space. […] The lobes of the thymus were retracted to reveal the transverse aortic arch as well as the right innominate and left common carotid arteries. […]
Echocardiography: Mice minimally anesthetized with 1-2% isoflurane were studied using a Vevo 770®, High-Resolution Imaging System (VisualSonics). The pressure gradient following TAC was calculated from the pulse wave Doppler velocity at the point of ligation as follows: P=4v^2; P=the induced pressure gradient (in mmHg) and v=the velocity across the constriction (in m/s).^7
AAV9 containing the indicated CIS plasmid encoding myc-GFP-mAKAP 1694-1833 were injected into neonatal wildtype mice. 2 week TAC was performed and analyzed as above at 8 weeks of age. […]

Molecule: CC(C)CCN1c2nc(Nc3cc(F)c(O)c(F)c3)ncc2N(C)C(=O)C1C (centres unmarked) [BI-D1870]
- agonist-induced myocyte hypertrophy [1]: inhibited

Molecule: O=C(NOC[C@H](O)CO)c1ccc(F)c(F)c1Nc1ccc(I)cc1F [PD0325901]
- progression of cardiac hypertrophy cardiomyopathy and other Noonan characteristics [2]: attenuated progression

Molecule: CC(=O)OC1C(C)OC(Oc2c(-c3ccc(O)cc3)oc3cc(O)cc(O)c3c2=O)C(O)C1OC(C)=O (centres unmarked) [SL0101]
- agonist-induced myocyte hypertrophy [1]: inhibited

Molecule: Cc1ccc(-c2c(C(=O)CF)n(CCCO)c3ncnc(N)c23)cc1 [fmk]
- α-adrenergic-induced NHE1 phosphorylation (NHE1): blocked

Molecule: CNC[C@H](O)c1cccc(O)c1 [phenylephrine]
- RSK phosphorylation induced (RSK): 3 fold

B1: green fluorescent protein—mAKAP RBD fusion protein: GFP fused to the mAKAP RSK3 binding domain (mAKAP residues 1694 to 1833), an anchoring disruptor (protein)
chain: ELSLCSEDIVLHKNKIPESNASFRKRLNRSVADESDVNVSMIVNVSCTSACTDDEDDSDLLSSSTLTLTEEELCLKDEDDDSSIATDDEIYEESNLMSGLDYIKNELQTWIRPKLSLTREKKRSGVTDEIKVNKDGGGNE
modifications: left off: small tags and cut ends; large carriers
- association of endogenous RSK3 and mAKAPβ (RSK3 and mAKAPβ): competed the association
- PE-induced hypertrophy ([1]; expressed in neonatal myocytes, phenylephrine): markedly inhibited

B2: myc-GFP-mAKAP 1694-1833: myc-GFP-tagged mAKAP 1694-1833 expressed in vivo from AAV9 (protein)
chain: B1 chain
modifications: left off: small tags and cut ends; large carriers
notes: myc-GFP-tagged mAKAP 1694-1833 expressed in vivo from AAV9
- concentric hypertrophy in vivo in the adult heart (wildtype mice): inhibited concentric hypertrophy
